US20220267310A1, “QUINAZOLINE AND CINNOLINE DERIVATIVES AS DNA-PK INHIBITOR” (MEDSHINE DISCOVERY INC., priority 2019, published 2022)
Values joined by “and” are separate entries in the source; they are usually repeats but may differ in a detail not shown here. Equal values may be shown once.

Columns and labels:
DNA-PK (h) = biological target: T1, DNA-PK (h) (Homo sapiens, UniProt P78527); experiment: DNA-PK kinase inhibitory activity (HTRF, Eurofins); format: biochemical; conditions: ATP: 10 μM
T1 construct: Eurofins Pharma Discovery Service (contract assay)
Experimental: (§1) This experiment was tested at Eurofins Pharma Discovery Service, Reaction Biology Corp. (RBC)
(§2) […] DNA-PK: Mg/ATP; GST-cMyc-p53; EDTA; Ser15 antibody; ATP: 10 μM; biotinylated phosphatidylinositol-3,4,5-triphosphate; GST label GRP1 PH domain; streptavidin and phycocyanin; europium-labelled monoclonal antibody against GST.
DNA-PK (h) was incubated in a determination buffer containing 50 nM GST-cMyc-p53 and Mg/ATP (density as required). The reaction was initiated by adding a mixture of Mg/ATP. After incubating at room temperature for 30 min, a termination solution containing EDTA was added to terminate the reaction. Finally, a detection buffer (containing labeled anti-GST monoclonal antibody and europium-labeled anti-phosphate Ser15 antibody against phosphorylated p53) was added. Then, the board was read in time-resolved fluorescence mode, and a Homogeneous Time Resolved Fluorescence (HTRF) signal was measured according to the formula HTRF=10000×(Em665 nm/Em620 nm).

PI3K (p110α/p85α) = biological target: T2, PI3K (p110α/p85α) (Homo sapiens, UniProt P42336); experiment: PI3K (p110α/p85α) kinase inhibitory activity (HTRF); format: biochemical
T2 construct: Eurofins Pharma Discovery Service (contract assay)
T2 sequence (P42336 whole entry, species assumed): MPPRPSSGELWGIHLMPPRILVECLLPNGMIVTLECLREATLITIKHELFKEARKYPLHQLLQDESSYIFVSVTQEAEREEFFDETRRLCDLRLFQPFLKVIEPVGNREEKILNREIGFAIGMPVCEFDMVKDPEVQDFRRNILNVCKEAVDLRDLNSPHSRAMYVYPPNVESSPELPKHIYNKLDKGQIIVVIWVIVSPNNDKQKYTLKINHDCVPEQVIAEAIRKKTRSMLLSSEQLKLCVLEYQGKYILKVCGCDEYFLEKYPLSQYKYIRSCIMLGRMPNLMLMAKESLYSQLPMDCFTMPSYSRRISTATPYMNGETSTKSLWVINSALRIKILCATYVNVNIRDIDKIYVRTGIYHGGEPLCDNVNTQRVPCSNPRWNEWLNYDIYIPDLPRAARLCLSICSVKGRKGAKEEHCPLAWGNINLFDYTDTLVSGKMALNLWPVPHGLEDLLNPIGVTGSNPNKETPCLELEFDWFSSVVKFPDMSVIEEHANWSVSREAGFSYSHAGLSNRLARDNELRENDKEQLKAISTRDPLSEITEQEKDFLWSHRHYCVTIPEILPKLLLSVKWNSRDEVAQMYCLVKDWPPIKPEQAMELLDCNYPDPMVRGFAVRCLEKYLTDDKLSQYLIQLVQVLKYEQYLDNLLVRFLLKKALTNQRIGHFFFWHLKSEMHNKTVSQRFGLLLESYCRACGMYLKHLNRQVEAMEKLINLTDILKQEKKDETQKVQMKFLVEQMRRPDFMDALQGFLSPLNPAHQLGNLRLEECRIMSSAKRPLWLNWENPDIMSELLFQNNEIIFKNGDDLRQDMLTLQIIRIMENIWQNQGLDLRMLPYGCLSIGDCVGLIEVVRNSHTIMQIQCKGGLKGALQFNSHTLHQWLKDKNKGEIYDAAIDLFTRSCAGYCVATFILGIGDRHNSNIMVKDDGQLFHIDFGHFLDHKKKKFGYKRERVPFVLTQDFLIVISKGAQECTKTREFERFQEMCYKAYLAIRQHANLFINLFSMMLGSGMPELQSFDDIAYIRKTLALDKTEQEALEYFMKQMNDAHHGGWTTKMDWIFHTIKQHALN
T2 sequence (P27986 whole entry partner, species assumed): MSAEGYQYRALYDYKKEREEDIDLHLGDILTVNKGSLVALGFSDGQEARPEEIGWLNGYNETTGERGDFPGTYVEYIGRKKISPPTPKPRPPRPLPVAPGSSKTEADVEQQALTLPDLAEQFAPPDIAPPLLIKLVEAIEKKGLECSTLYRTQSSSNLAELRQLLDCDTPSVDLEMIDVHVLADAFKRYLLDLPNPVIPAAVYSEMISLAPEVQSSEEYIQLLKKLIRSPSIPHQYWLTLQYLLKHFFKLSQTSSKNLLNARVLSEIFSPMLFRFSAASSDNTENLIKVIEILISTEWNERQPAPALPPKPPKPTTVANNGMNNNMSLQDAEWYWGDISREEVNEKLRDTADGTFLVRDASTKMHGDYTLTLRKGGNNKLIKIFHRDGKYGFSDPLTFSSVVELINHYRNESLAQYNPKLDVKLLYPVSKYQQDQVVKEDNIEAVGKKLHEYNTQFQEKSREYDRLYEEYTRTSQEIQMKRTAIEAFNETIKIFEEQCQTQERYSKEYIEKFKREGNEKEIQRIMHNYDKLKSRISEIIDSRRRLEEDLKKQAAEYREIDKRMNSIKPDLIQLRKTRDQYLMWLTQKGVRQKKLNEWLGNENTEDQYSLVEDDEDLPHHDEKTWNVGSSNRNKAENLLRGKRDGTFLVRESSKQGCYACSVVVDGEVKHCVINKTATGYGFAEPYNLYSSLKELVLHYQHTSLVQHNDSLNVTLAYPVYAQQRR
Experimental: as §1, §2
PI3K (p110α/p85α) was incubated in a determination buffer containing phosphatidylinositol 4,5-diphosphate and Mg/ATP (density as required). The reaction was initiated by adding an ATP solution. After incubating at room temperature for 30 min, a termination solution containing EDTA and biotinylated phosphatidylinositol-3,4,5-triphosphate was added to terminate the reaction. Finally, a detection buffer (containing labeled anti-GST monoclonal antibody, PH domain of GRP1 with GST label and streptavidin and phycyanin and […]) was added. Then, the board was read in time-resolved fluorescence mode, and an HTRF signal was measured according to the formula HTRF=10000×(Em665 nm/Em620 nm).

PI3K (p110σ/p85α) = biological target: T3, PI3K (p110σ/p85α) (Homo sapiens, UniProt O00329); experiment: PI3K (p110σ/p85α) kinase inhibitory activity (HTRF); format: biochemical
T3 construct: Eurofins Pharma Discovery Service (contract assay)
T3 sequence (O00329 whole entry): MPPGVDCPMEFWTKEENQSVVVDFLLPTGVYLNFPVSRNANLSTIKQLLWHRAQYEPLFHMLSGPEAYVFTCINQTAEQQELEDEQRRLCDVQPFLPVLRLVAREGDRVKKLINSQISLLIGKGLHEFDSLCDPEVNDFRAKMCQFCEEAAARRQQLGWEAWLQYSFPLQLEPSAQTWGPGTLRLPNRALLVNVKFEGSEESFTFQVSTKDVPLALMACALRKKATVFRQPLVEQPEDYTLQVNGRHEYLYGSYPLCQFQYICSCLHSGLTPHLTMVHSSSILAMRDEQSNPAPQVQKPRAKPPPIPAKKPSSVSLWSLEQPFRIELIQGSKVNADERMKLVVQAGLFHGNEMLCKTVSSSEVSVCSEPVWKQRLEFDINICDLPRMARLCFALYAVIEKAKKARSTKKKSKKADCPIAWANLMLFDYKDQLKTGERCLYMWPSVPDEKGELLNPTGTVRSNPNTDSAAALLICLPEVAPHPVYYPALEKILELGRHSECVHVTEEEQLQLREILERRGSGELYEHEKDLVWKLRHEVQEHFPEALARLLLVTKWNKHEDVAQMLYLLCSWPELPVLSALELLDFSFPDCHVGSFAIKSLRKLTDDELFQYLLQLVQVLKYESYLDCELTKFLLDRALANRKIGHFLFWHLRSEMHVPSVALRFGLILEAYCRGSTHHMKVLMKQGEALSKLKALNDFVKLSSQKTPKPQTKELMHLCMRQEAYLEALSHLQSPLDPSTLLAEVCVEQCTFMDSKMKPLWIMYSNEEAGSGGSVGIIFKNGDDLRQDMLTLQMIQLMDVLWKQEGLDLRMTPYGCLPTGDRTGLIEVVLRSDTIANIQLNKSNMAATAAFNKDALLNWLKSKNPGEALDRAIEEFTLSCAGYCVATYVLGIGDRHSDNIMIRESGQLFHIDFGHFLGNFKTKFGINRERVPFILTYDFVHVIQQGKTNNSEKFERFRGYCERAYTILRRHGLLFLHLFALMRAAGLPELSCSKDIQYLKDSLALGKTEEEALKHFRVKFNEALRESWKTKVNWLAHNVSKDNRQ
T3 sequence (P27986 whole entry partner): as the sequence (P27986 whole entry partner, species assumed) above

[1] = test system: human small cell lung cancer NCI-H69 cell subcutaneous xenograft tumor; experiment: NCI-H69 subcutaneous xenograft, combination with etoposide, 22-day experiment (Table 7); format: in vivo, BALB/c nude mice
Experimental: Experiment example 3: in vivo pharmacodynamics of human small cell lung cancer NCI-H69 cell subcutaneous xenograft tumor BALB/c nude mouse model:
Experimental animals: Female BALB/c nude mice, 6-8 weeks old, weighing 15-22 grams; supplier: Shanghai Linchang Biotechnology Co., LTD. (Linchang, Shanghai)
Human small cell lung cancer NCI-H69 cells (ATCC, item number: HTB-119 and ECACC-95111733) were cultured in vitro in a culture condition of RPMI-1640 medium with 10% fetal bovine serum, 100 U/mL penicillin and 100 μg/mL streptomycin, incubated at 37° C. and 5% CO2. Conventional passage was carried out twice a week. When cell saturation was 80%-90% and the number reaches the requirement, cells were collected, counted and inoculated.
0.2 mL (10×10^6) NCI-H69 cells (with matrix glue, and volume ratio of 1:1) were subcutaneously inoculated into a right back of each mouse, and group administration was initiated when the average tumor volume reaches about 110-120 mm^3.
The tested compound was prepared as a 5 mg/mL clarified solution with 10% DMSO+50% polyethylene glycol 400+40% water as the solvent.
The experimental indicators refers to study whether tumor growth was inhibited, delayed, or cured. Tumor diameter was measured twice a week with a vernier caliper. The calculation formula of the tumor volume was V=0.5a×b^2, and a and b represent the long diameter and short diameter of the tumor, respectively.
The antitumor efficacy of the compound was evaluated by TGI (%) or relative tumor proliferation rate T/C (%). TGI (%) reflects the tumor growth inhibition rate. The calculation of TGI (%): TGI (%)=[1−(average tumor volume at the end of administration of a certain treatment group−average tumor volume at the beginning of administration of the treatment group)/(average tumor volume at the end of treatment in solvent control group−average tumor volume at the beginning of treatment in solvent control group)]×control group.
Relative tumor proliferation rate T/C (%): the calculation formula was as follows: T/C %=[…] TRTV/CRTV group (TRTV: treatment group RTV; CRTV: negative control group RTV). According to results of tumor measurement, Relative Tumor Volume (RTV) was calculated by the formula RTV=Vt/V0, where V0 was the average tumor volume measured in group administration (i.e., d0), and Vt was the average tumor volume measured in a certain single measurement. TRTV and CRTV collect data on the same day.
Statistic analysis includes an average value and a standard error (SEM) of tumor volume at each time point for each group. […] If there was no significant difference in F value, Dunnet (2-sided) method was applied to analysis. All data were analyzed using SPSS 17.0. P<0.05 was considered as having a significant difference.

[2] = Pharmacokinetic evaluation in mice, IV and PO; format: in vivo, Balb/c female mice
Experimental: The tested compound was mixed with 10% DMSO/50% PEG400/40% water, vortexized and ultrasonic to prepare 0.2 mg/mL or 0.4 mg/ml, approximately clarified solution, which was filtered by a microporous membrane and then standby. Balb/c female mice of 18-20 g were selected and given the candidate compound solution intravenously at a dose of 1 or 2 mg/kg. The tested compound was mixed with 10% DMSO/50% PEG400/40% water, vortexized and ultrasonic to prepare 0.2 mg/mL or 1 mg/mL approximately clarified solution, which was filtered by a microporous membrane and then standby. Balb/c female mice of 18 to 20 g were selected and given orally the candidate compound solution at a dose of 2 or 10 mg/kg. Whole blood was collected for a certain period of time, and plasma was prepared. Drug concentration was analyzed by LC-MS/MS method, and pharmacokinetic parameters were calculated by Phoenix WinNonlin software (US Pharsight company).
C0: instantaneous concentration required after intravenous injection; Cmax: the highest blood concentration after administration; Tmax: time required to reach peak concentration after administration; T1/2: the time required for blood drug concentration to decrease by half; Vdss: apparent volume of distribution, which refers to the ratio constant of drug dosage to blood concentration when a drug reaches dynamic equilibrium in vivo. Cl: clearance rate, referring to drug apparent distribution volume number removed from the body per unit time; Tlast: time of last detection point: AUC0-last: an area under a drug duration curve, referring to an area surrounded by the blood drug concentration curve on the time axis; Bioavailability: a measure of the rate and extent of drug absorption into the blood circulation, which was an important index to evaluate drug absorption degree.

[3] = 40 mg/kg, PO, QD + etoposide 10 mg/kg, IP, 3-day administration, 4-day withdrawal, 22nd day
[4] = 40 mg/kg, PO, QD + etoposide 10 mg/kg, IP, 3-day administration, 4-day withdrawal, average ± SEM

- IC50 (DNA-PK (h)): 0.0005 µM
- IC50 (PI3K (p110α/p85α)): 0.039 µM
- IC50 (PI3K (p110σ/p85α)): 0.013 µM
- Weight changes ([1]; 40 mg/kg group (+ etoposide 10 mg/kg, IP)): −16.66%
- AUC0-last ([2]; IV(2 mg/kg), mouse plasma): 3.354 µM·h
- C0 ([2]; IV(2 mg/kg), mouse plasma): 1.81 µM
- Cl ([2]; IV(2 mg/kg), mouse plasma): 1.22 L/h/kg
- T1/2 ([2]; IV(2 mg/kg), mouse plasma): 1.33 h
- Tlast ([2]; IV(2 mg/kg), mouse plasma): 8.00 h
- Vdss ([2]; IV(2 mg/kg), mouse plasma): 2.25 L/kg
- Bioavailability (%) ([2]; PO(10 mg/kg), mouse): 60.8%
- AUC0-last ([2]; PO(10 mg/kg), mouse plasma): 9.073 µM·h
- Cmax ([2]; PO(10 mg/kg), mouse plasma): 2.52 µM
- T1/2 ([2]; PO(10 mg/kg), mouse plasma): 2.47 h
- Tlast ([2]; PO(10 mg/kg), mouse plasma): 8.00 h
- Tmax ([2]; PO(10 mg/kg), mouse plasma): 1.00 h
Compound: COc1ccc(C(O)c2cc(-c3ccnc4cc(N5CCOCC5)ccc34)c(F)cc2Cl)nn1 (single isomer, unassigned) [Embodiment 2]
- RTV (22th day) ([1]; 40 mg/kg, PO, QD + etoposide 10 mg/kg, IP, 3-day administration, 4-day withdrawal): 1.84
- T/C (%) [1, 3]: 21.37%
- TGI (%) [1, 3]: 89% and 88.96%
- Tumor volume (mm^3) (0th day) [1, 4]: 119 ± 13 mm^3
- Tumor volume (mm^3) (22th day) [1, 4]: 219 ± 44 mm^3
